Source: patent US7271158B2, “Treatment of rumen acidosis with α-amylase inhibitors” (Pfizer Inc., priority 2000, dated 2007)

Experiments:
E. coli = assay: Minimum inhibitory concentrations in aerobes (agar dilution); type: cell-based; details: Escherichia coli
strained rumen liquor = assay: In vitro rumen propionic acid screen; type: cell-based, Guernsey cow; details: control normalised as 100%; for Total VFA: 6 h incubation; for % Propionate: molar proportion of propionic acid in total VFA
Protocol: In Vitro Rumen Propionic Acid Screen Rumen Fluid: An eight year old dry Guernsey cow, fitted with a rumen fistula (Bar Diamond Inc. P.O. Box. 60. Bar Diamond Lane. Parma. Id. 83660-0060. […] This animal was used as a source of rumen contents, which were taken at 08:00 h (before the morning feed). The material was carried to the laboratory in a pre-warmed insulated flask, and then strained through four layers of cotton gauze into another pre-warmed bottle, which was stored in an incubator at 40° C. until the fluid was dispensed into the assay tubes. Substrate Mixture: • 68 g corn starch. Ex Sigma Cat. S-4126. • 17 g α-cellulose. Ex Sigma Cat. C-6429. • 15 g Type 1 soya flour. Ex Sigma Cat. S-9633. • Mix well. The assay was conducted in 16 ml Sorvall centrifuge tubes A tablet containing 100 mg of acarbose was placed in 10 ml of buffer and shaken until the tablet was completely disrupted, giving a 10 mg/ml solution of acarbose. […] Control tubes were prepared by replacing the acarbose solution with buffer. One ml of substrate suspension was added to all the assay tubes, followed by 3 ml of warmed degassed buffer and then by 5 ml of strained rumen liquor. Suba-Seal stoppers (No. 29) were fitted, and the head pressure in the tubes reduced by passing a hypodermic needle attached to a vacuum line through the stopper until the tube contents frothed. The tubes were then placed in a 40° C. incubator for 6 hours and shaken hourly. Pre-incubation VFA concentration were determined by preparing three tubes as for incubation but 1 ml metaphosphoric/crotonic acids solution was added immediately following the rumen liquor. These tubes were stored at 4° C. and processed with the post-incubation tubes. The incubation was terminated after 6 h by removing the stoppers and adding 1 ml of metaphosphoric/crotonic acids solution. The tubes were then centrifuged for 8 minutes at 18,000 g at 4° C., and an aliquot of the supernatant stored in an automatic liquid sampler vial until required for VFA analysis by gas chromatography. (as described in […] protocol) Production of total VFA and propionate during the incubation was determined as follows. Firstly, first the pre-incubation concentrations of total VFA and propionic acid were calculated as the mean of the analyses of the pre-incubation samples. Then for each incubated sample, post-minus pre-incubation concentration gave production during incubation. The molar proportion of propionic acid in total VFA.produced during the incubation was also calculated. The total VFA and % propionic acid values were meaned for the replicate tubes, and the mean control total VFA and % propionic acid values normalised as 100%, then the change caused by the test treatments expressed relative to this value.

[1] = test system: lactating cows in which chronic acidosis had been induced; assay: Efficacy of acarbose in lactating dairy cattle (induced chronic acidosis); type: in vivo, Holstein/Friesian cows
Source text: Efficacy of Acarbose in Lactating Dairy Cattle The study measured the effect of acarbose on rumen pH, milk yield and milk composition in lactating cows in which chronic acidosis had been induced by offering a highly fermentable diet. The study included measurement of rate of adaptation to the introduction and removal of acarbose. Experimental animals were six lactating multiparous Holstein/Friesian cows between 5 and 11 years of age and 500-750 kg, with permanent rumen cannulas. The animals started the experiment in early lactation, but not before peak lactation, to allow greater experimental sensitivity. The principal measurements in this study were pH in the ventral sac of the rumen, milk yield and milk composition. DESIGN: Animals enrolled into the study received test article for 21 consecutive days from the start time points described below. [table] Masking/Bias-Reducing Methods: Six lactating multiparous Holstein/Friesian cows were enrolled on to the study on Day-1. Animals were paired based on their calving date (cows with similar dates paired together). Within each pair, one animal received […] and the other […]. The treatment was assigned at random. […] The mean intake over the last 5 days of the preliminary period was calculated and this mean amount was offered to each animal throughout the trial. […] Fresh weight of TMR offered and refused was recorded daily for each animal. During non-measurement weeks ([…] period and adaptation weeks 1 and 2 in each experimental period), dry matter (DM) of main forage components (grass and maize […] determined approximately weekly (or more frequently if it appears necessary from visual assessment of the silage). For measurement weeks (i.e. week 3 in each experimental period), the DM of the TMR were measured daily for the last 5 days while a bulk of each of the individual TMR components (grass silage, maize silage, concentrate mix, ground wheat) were prepared from the same 5 days for subsequent diet analysis (i.e. one sample of each main feed per period). […]

CC1OC(OC2C(CO)OC(OC3C(CO)OC(O)C(O)C3O)C(O)C2O)C(O)C(O)C1NC1C=C(CO)C(O)C(O)C1O (centres unmarked) [Acarbose, acarbose]
MIC (E. coli; ATCC10418, E. coli ATCC 10418): > 128 mg/L | MIC (E. coli; E. coli E517): > 128 mg/L | Total VFA (strained rumen liquor; dose 0.32 μg/ml): 96% | % Propionate (strained rumen liquor; dose 0.32 μg/ml): 97% | Total VFA (strained rumen liquor; dose 1.6 μg/ml): 92% | % Propionate (strained rumen liquor; dose 1.6 μg/ml): 94% | Total VFA (strained rumen liquor; dose 8 μg/ml): 72% | % Propionate (strained rumen liquor; dose 8 μg/ml): 74% | Total VFA (strained rumen liquor; dose 40 μg/ml): 63% | % Propionate (strained rumen liquor; dose 40 μg/ml): 74% | Total VFA (strained rumen liquor; dose 200 μg/ml): 58% | % Propionate (strained rumen liquor; dose 200 μg/ml): 81% | Total VFA (strained rumen liquor; dose 1000 μg/ml): 50% | % Propionate (strained rumen liquor; dose 1000 μg/ml): 88% | proportion of fat in the milk ([1]; treated animals, acarbose 15 g per day (control 32.8 g/L)): 46.1 g/L | milk fat ([1]; treated animals, acarbose 15 g per day (control average 1033 grams per day)): 1281 grams per day | average time below pH 5.5 (rumen) ([1]; treatment periods, acarbose 15 g per day in feed supplement (control periods 4.3 hours)): 3.4 hours
